We go through 18 molecules from PubChem BioAssay (NCI).

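1) Cells in 96-well plates. 2) Compound, 48 h, 5 concentrations. 3) Linear interpolation between surrounding doses. 4) Unreached endpoint = highest concentration. Abbreviation: GI50, concentration required for 50% inhibition of growth. TGI is the concentration that stops growth completely.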 Where a SMILES comes first, the peptide text is derived from it. The star is where a group is joined. Palmitoyl = CCCCCCCCCCCCCCCC(=O)* Where only a bound is given, the exact number is not on record here.

Among the test systems are MDA-MB-435; IGROV1 ovarian; SNB-19 CNS; SK-MEL-5 melanoma; SR leukemia; EKVX NSCLC; NCI/ADR-RES ovarian; RXF 393 renal; HL-60(TB) leukemia; SF-295 CNS.
Holding throughout (assay): growth of human tumour cells (NCI), 48 h

For the molecule `O[C@@]12Cc3c([nH]c4ccccc34)[C@@H]3Oc4cccc5c4[C@@]31CCN(CC1CC1)[C@@H]2C5`, the TGI with MDA-MB-435 was 29.2 µM; in the assay on IGROV1 ovarian it was 45.4 µM; in the assay with SNB-19 CNS, 50.9 µM; in the assay on SK-MEL-5 melanoma, 40.7 µM; in the assay with SR leukemia, more than 100 µM; with EKVX NSCLC, 47.6 µM. Moreover, the TGI with NCI/ADR-RES ovarian amounted to 51.2 µM.
In the case of `CCOC(=O)c1c(C)n(-c2ccc(Cl)cc2)c2c1cc(O)c1[nH]c3c(c12)CCCC3`, the TGI in the assay with MDA-MB-435 is more than 100 µM; in the assay with RXF 393 renal it was more than 100 µM; in the assay with IGROV1 ovarian, more than 100 µM; with SNB-19 CNS, more than 100 µM; in the assay on HL-60(TB) leukemia, more than 100 µM; in the assay with SK-MEL-5 melanoma it was 49.4 µM. Further, the TGI with SR leukemia was 43.3 µM; with EKVX NSCLC, more than 100 µM; with SF-295 CNS, more than 100 µM; with NCI/ADR-RES ovarian, more than 100 µM.
As to `COC(=O)C1=C(OC(=O)/C(=C/c2ccc(Cl)cc2)c2ccc(Cl)cc2)C(C(=O)OC)[C@]2(O)[C@@H](C(=O)OC)[C@H]1C[C@@H](c1ccccc1)[C@@H]2C(=O)OC` (some centres not stated), the TGI with MDA-MB-435, in the assay with RXF 393 renal, with IGROV1 ovarian, in the assay on SNB-19 CNS, in the assay on HL-60(TB) leukemia and in the assay on SK-MEL-5 melanoma was more than 100 µM throughout. Also, the TGI with EKVX NSCLC, in the assay with SF-295 CNS and in the assay on NCI/ADR-RES ovarian was more than 100 µM each time.
In the case of `c1cnc2c(c1)ccc1cccnc12`, the TGI with MDA-MB-435 is more than 100 µM; with RXF 393 renal it was more than 100 µM; in the assay with IGROV1 ovarian, more than 100 µM; in the assay on SNB-19 CNS, more than 100 µM; in the assay with HL-60(TB) leukemia, 3.04 µM; in the assay on SK-MEL-5 melanoma, more than 34 µM. Further, the TGI with SR leukemia was 4.26 µM; in the assay on EKVX NSCLC, more than 78.6 µM; in the assay on SF-295 CNS it was more than 100 µM; in the assay with NCI/ADR-RES ovarian, more than 74.7 µM.
For the molecule `COc1cc(C(C)O)c[n+](Cc2ccccc2)c1` (configuration not stated), the TGI in the assay with RXF 393 renal, with IGROV1 ovarian, with SNB-19 CNS, in the assay on HL-60(TB) leukemia, in the assay with SK-MEL-5 melanoma and in the assay with SR leukemia was more than 100 µM each time. The TGI with EKVX NSCLC and with SF-295 CNS was more than 100 µM each time.
Regarding `C/C(=N/N=C(\[O-])c1ccncc1)C(F)(F)F.C/C(=N\N=C(/[O-])c1ccncc1)C(F)(F)F.[Ni+2]`, the GI50 in the assay on SNB-19 CNS, with EKVX NSCLC, in the assay on SF-295 CNS and in the assay with NCI/ADR-RES ovarian was more than 1 µM throughout. Moreover, the TGI with SNB-19 CNS, with HL-60(TB) leukemia, in the assay with EKVX NSCLC, with SF-295 CNS and with NCI/ADR-RES ovarian was more than 1 µM throughout.
In the case of `CN1C(c2ccccc2)CC(=O)C(N)C1c1ccccc1` (configuration not stated), the TGI was more than 31.6 µM in the assay on RXF 393 renal; more than 100 µM in the assay on IGROV1 ovarian; more than 100 µM with SNB-19 CNS; 56.7 µM with HL-60(TB) leukemia; 33.6 µM in the assay on SK-MEL-5 melanoma; more than 60.2 µM in the assay with SR leukemia. The figures for the TGI in the assay on EKVX NSCLC and in the assay on SF-295 CNS were more than 80.4 µM and more than 100 µM, respectively.
Turning to `Nc1[nH]c(=O)nc2c1cnn2C1CCCCO1` (configuration not stated), the TGI in the assay with RXF 393 renal, in the assay on IGROV1 ovarian, in the assay on SNB-19 CNS, in the assay on HL-60(TB) leukemia, with SK-MEL-5 melanoma and with SR leukemia was more than 100 µM throughout. Moreover, the TGI in the assay with EKVX NSCLC and in the assay on SF-295 CNS was more than 100 µM throughout.
Regarding `c1ccc(-c2nc(N3CCNCC3)c3oc(-c4ccccc4)nc3n2)cc1`, the GI50 in the assay on MDA-MB-435 is 1.65 µM; in the assay on RXF 393 renal, 1.54 µM; with IGROV1 ovarian, 1.69 µM; with SNB-19 CNS it was 1.72 µM; in the assay with HL-60(TB) leukemia it was 2.03 µM; in the assay on SK-MEL-5 melanoma, 1.77 µM. Further, the GI50 in the assay on SR leukemia is 0.259 µM; in the assay with SF-295 CNS, 1.75 µM. The TGI in the assay on MDA-MB-435 was found to be 3.12 µM; in the assay on RXF 393 renal, 3.07 µM; with IGROV1 ovarian, 3.22 µM; in the assay with SNB-19 CNS it was 3.15 µM; in the assay on HL-60(TB) leukemia, 4.26 µM; with SK-MEL-5 melanoma, 3.2 µM. In addition, the TGI with SR leukemia turned out to be 0.793 µM; with SF-295 CNS it was 3.22 µM.
For the molecule `CON(C)c1nc(N(C)OC)nc(N(C)OC)n1`, the TGI in the assay with MDA-MB-435, in the assay on RXF 393 renal, in the assay with IGROV1 ovarian, in the assay on SNB-19 CNS, in the assay on HL-60(TB) leukemia and in the assay with SK-MEL-5 melanoma was more than 10 µM throughout. For the same molecule, the TGI in the assay with SR leukemia, in the assay on EKVX NSCLC, in the assay with SF-295 CNS and in the assay on NCI/ADR-RES ovarian was more than 10 µM each time.
For the molecule `CCCCCCCCCCCCCCCC(=O)N1CCCC1C(=O)NCC(=O)NC(Cc1ccccc1)C(=O)NC(C)C(=O)NC(CO)C(=O)NC(Cc1ccc(O)cc1)C(=O)NC(CCCCN)C(=O)NC(CC(C)C)C(=O)NC(CCCN=C(N)N)C(=O)N1CCCC1C(=O)NCC(N)=O` (configuration not stated) (Palmitoyl-PGFASYKLRPG-NH2; configuration not given here), the GI50 in the assay on MDA-MB-435 is 14 µM; with RXF 393 renal, 24.7 µM; in the assay on IGROV1 ovarian it was 20.1 µM; in the assay with SNB-19 CNS, 18.4 µM; in the assay with HL-60(TB) leukemia, 17.2 µM; in the assay on SK-MEL-5 melanoma, 33.4 µM. For the same molecule, the GI50 is 12 µM in the assay with SR leukemia, 20.1 µM in the assay on EKVX NSCLC, 27.3 µM in the assay on SF-295 CNS and 16.2 µM in the assay with NCI/ADR-RES ovarian. Also, the TGI in the assay with MDA-MB-435 was 54.5 µM; with RXF 393 renal it was 53.5 µM; in the assay with IGROV1 ovarian, 46.1 µM; in the assay on SNB-19 CNS, 39.7 µM; with HL-60(TB) leukemia, 31 µM; in the assay with SK-MEL-5 melanoma, more than 100 µM. For the same molecule, the TGI in the assay on SR leukemia was determined as 24.5 µM; in the assay with EKVX NSCLC, 52.1 µM; with SF-295 CNS, 67.1 µM; in the assay on NCI/ADR-RES ovarian, 35 µM.
For the molecule `Cc1c(-c2ccccc2)[nH]c2cc(Cl)ccc2c1=O`, the TGI is more than 100 µM with MDA-MB-435; 79.5 µM in the assay on RXF 393 renal; more than 100 µM in the assay on SNB-19 CNS; more than 100 µM in the assay on HL-60(TB) leukemia; more than 100 µM in the assay on SK-MEL-5 melanoma; more than 100 µM in the assay on SR leukemia. The molecule also returned a TGI with EKVX NSCLC of more than 100 µM.
With `Nc1nc(Nc2ccccc2)c2[nH]cnc2n1`, the TGI in the assay with MDA-MB-435, with RXF 393 renal, in the assay with IGROV1 ovarian, in the assay on SNB-19 CNS, in the assay on HL-60(TB) leukemia and with SK-MEL-5 melanoma was more than 100 µM throughout. The TGI in the assay with EKVX NSCLC, in the assay on SF-295 CNS and in the assay on NCI/ADR-RES ovarian was more than 100 µM throughout.
As to `CC1=C(O)C2=C(C(=O)C1=O)[C@@H](C)CC[C@@H]2[C@@H](C)C/C=C/C(C)(C)O`, the TGI in the assay with MDA-MB-435 was more than 100 µM; with IGROV1 ovarian it was more than 100 µM; in the assay with SNB-19 CNS, more than 100 µM; with HL-60(TB) leukemia, 71.3 µM; in the assay with SK-MEL-5 melanoma, more than 100 µM; in the assay on SR leukemia it was 80.4 µM. Also, the TGI in the assay with SF-295 CNS and in the assay with NCI/ADR-RES ovarian was more than 100 µM throughout.
`OCCN(CCO)c1ncnc2nc[nH]c12`: the TGI with MDA-MB-435, in the assay on RXF 393 renal, with IGROV1 ovarian, with SNB-19 CNS, in the assay on SK-MEL-5 melanoma and in the assay with EKVX NSCLC was more than 100 µM in each case. Further, the TGI with SF-295 CNS and in the assay with NCI/ADR-RES ovarian was more than 100 µM in each case.
On to `CCN1CCC(O)(/C=C/c2ccccc2C)C(C(=O)/C=C/c2ccccc2C)C1` (configuration not stated), for which the TGI is 7.04 µM in the assay on MDA-MB-435; 3.67 µM in the assay on RXF 393 renal; 14.5 µM with IGROV1 ovarian; 4.85 µM in the assay on HL-60(TB) leukemia; 2.9 µM in the assay with SK-MEL-5 melanoma; more than 100 µM in the assay on SR leukemia. The figures for the TGI in the assay on EKVX NSCLC, in the assay on SF-295 CNS and with NCI/ADR-RES ovarian were 16.8 µM, 6.68 µM and 12.7 µM, respectively.
With `CC(N)Cc1ccc(Cl)c(Cl)c1` (configuration not stated), the TGI in the assay on RXF 393 renal is 77.2 µM; with IGROV1 ovarian, more than 100 µM; in the assay on SNB-19 CNS, more than 100 µM; with HL-60(TB) leukemia it was 42.4 µM; in the assay with SK-MEL-5 melanoma it was 31 µM; with SR leukemia it was 48.1 µM. The results for the TGI with EKVX NSCLC and with SF-295 CNS were more than 100 µM and more than 80.1 µM, respectively.
As to `Nc1nc(O)c2ncn([C@H]3CC[C@@H](CO)O3)c2n1`, the TGI in the assay with MDA-MB-435, with RXF 393 renal, in the assay with IGROV1 ovarian, in the assay with SNB-19 CNS, in the assay on SK-MEL-5 melanoma and in the assay on SR leukemia was more than 100 µM in each case. In addition, the TGI in the assay on SF-295 CNS and in the assay on NCI/ADR-RES ovarian was more than 100 µM throughout.
